From patent publication US4250259A, “Microbiological production of ketones from C3 -C6 secondary alcohols” (priority 1979, dated 1981) come the findings set out here.

Experiment [1] deals with Methylobacter capsulatus Y (NRRL B-11,201). Nature of the experiment: sec-alcohols to ketones by resting cell suspensions. It is filed as cell-based. How it is done: (§1) The pH of the nutrient medium was adjusted to 7.0 by the addition of acid or base and 50 ml. samples of the nutrient medium were charged into a plurality of 300 ml. shaker flasks. The shaker flasks were inoculated with an inoculating loop of cells from an agar plate containing homogeneous colonies of the microorganisms on the plate (the purity of the isolates was confirmed by microscopic examination). The isolates had been maintained on methanol (0.4% V/V) agar plates or on agar plates under an atmosphere of methane and air having a 1:1 V/V gas ratio which had been transferred every two weeks. For growth on methanol, the medium was supplemented with 0.4% methanol. For growth on methane, the gaseous phase of the inoculated flasks was replaced with a gas mixture comprised of methane and air having a ratio of 1:1 on a V/V basis. The inoculated flasks were sealed air-tight and were incubated on a rotary shaker of orbital radius 2.5 cm. at 250 rpm and at 30° C. for two days until turbidity in the medium had developed. The cells were harvested by centrifugation at 10,000×g. at 4° C. for 30 minutes. The cell pellet was washed twice with a 0.05 M phosphate buffer at a pH of 7.0 (containing 0.02 M MgCl2). The washed cells were then suspended in a 0.05 M phosphate buffer at pH 7.0.
(§2) A 0.5 ml. sample of each washed cell suspension (2 mg. cells) was put into 10 ml. vials at 4° C. which were sealed with a rubber cap. The gaseous phase of the vials was removed with vacuum and then was replaced with a gas mixture of the substrate reactant (i.e., alkane or secondary alcohol) and oxygen at a 1:1 V/V ratio. (In the case of a liquid substrate, i.e., secondary alcohol, 10 μl of the substrate was put in the 10 ml. vials). […] Samples of product (1-3 μl) were withdrawn periodically with a microsyringe and the products were analyzed by gas chromatography (ionization flame detector column).
(§3) The procedure in Example 1 was repeated wherein a plurality of the methane-utilizing methylotrophic microorganisms were each grown aerobically in a nutrient medium containing methane as the alcohol dehydrogenase enzyme inducer and as the major carbon and energy source for growth. The cells were harvested and washed as described in Example 1. The resting microbial cells of the induced methane-grown methane-utilizing methylotrophic microorganisms were then contacted with C3 -C6 secondary alcohols in a buffered solution by the procedure of Example 1.
(§4) In this example, the procedure in Example 1 was repeated except that a plurality of methane-utilizing methylotrophic microorganisms were each aerobically grown in a methanol-containing nutrient medium instead of a methane-containing medium. The nutrients in the medium were the same as indicated in Example 1 except that 0.4% V/V methanol was used as the alcohol dehydrogenase inducer and major source of carbon and energy for growth. Following growth, the cells were harvested and washed as described in Example 1.
(§5) The resting cells of the induced methanol-grown methylotrophic microorganisms were then contacted with secondary alcohols in a buffered solution by the procedure described in Example 1.

Experiment [2] concerns Methylomonas methanica S1 (NRRL B-11,199). The description is as above. It counts as cell-based. The method, then:
as §1, §2, §3, §4, §5

Experiment [3] deals with Methylosinus sporium 5 (NRRL B-11,197). The description is as above. It counts as cell-based. The method, then:
as §1, §2, §3, §4, §5

Experiment [4] concerns Methylocystis parvus OBBP (NRRL B-11,198). Described as above. It counts as cell-based. How it is done: as §1, §2, §3, §4, §5
The subject of experiment [5] is Methylomonas albus BG8 (NRRL B-11,200). Described as above. It is filed as cell-based. How it is done:
as §1, §2, §3, §4, §5

For experiment [6], the system named is Methylococcus capsulatus, Texas (ATCC 19069). The experiment is described as above. It is filed as cell-based. How it is done: as §1, §2, §3, §4, §5
Experiment [7] has as its system cell extracts (NAD+-dependent secondary alcohol dehydrogenase). Nature of the experiment: sec-alcohols to methyl ketones by cell extracts of yeasts, gas chromatography. It counts as biochemical, Candida utilis ATCC 26,387. The following applies: grown on methanol. How it is done:
The supernantant liquid was termed the crude extracts.
The reaction mixture, in a total of 3.0 ml., contained 50 mM phosphate buffer, pH 7.0, 20 μmole NAD^+, cell extracts (1 ml.).
The ketone product obtained from oxidation of sec-alcohols by cell extracts of organisms were estimated by flame ionization gas chromatography by using a stainless steel column (12 ft. by 1/8 in.) packed with 10% Carbowax 20 M on 80/100 chromosorb w column (Perkin Elmer Corp., Norwalk, Conn.). The column temperature was maintained isothermally at 130° C. and the carrier gas flow was 30 ml. of helium per min. […] The protein content of cell-suspensions was determined by the Lowry et al. method.
NRRL Y-11,328 Torulopsis sp.

The test system of experiment [8] is Pseudomonas sp. ATCC 21439 (Obligate). Nature of the experiment: sec-alcohols to ketones by resting cell suspensions. It is filed as cell-based. The following applies: methanol-grown cells. The method, then:
as §1, §2
(§6) The procedure in Example 1 was repeated except that a plurality of methanol-utilizing methylotrophic microorganisms were each aerobically grown in a methanol-containing nutrient medium instead of a methane-containing medium. The nutrients in the medium were the same as indicated in Example 1 except that 0.4% V/V methanol was used as the alcohol dehydrogenase inducer and as the major carbon and energy source for growth. The cells were harvested and washed as described in Example 1. The resting microbial cells of the induced methanol-grown methanol-utilizing methylotrophic microorganisms were then contacted with C3 -C6 secondary alcohols in a buffered solution by the procedure of Example 1.

The test system of experiment [9] is Pseudomonas MS ATTC 25262 (Facultative). The description is as above. It is filed as cell-based. Conditions: methanol-grown cells. The method, then: as §1, §2, §6
The test system of experiment [10] is cell extracts (NAD+-dependent secondary alcohol dehydrogenase). Nature of the experiment: sec-alcohols to methyl ketones by cell extracts of yeasts, gas chromatography. It counts as biochemical, Pichia sp. NRRL-Y-11,328. The following applies: grown on methanol.

Molecules are shown by their SMILES.

Take `CCC(C)O` (centres unmarked) [2-Butanol, 2-butanol]: the “Conversion Rates, sec-alcohol to corresponding ketone” value (“Conversion Rates, sec-alcohol” for short) in experiment [1] (cells grown on methane) is given as 0.84 μmoles/hr/mg protein; in experiment [1] (cells grown on methanol) it was 1.5 μn moles/hr/mg protein; in experiment [2] (cells grown on methane), 0.39 μmoles/hr/mg protein; in experiment [2] (cells grown on methanol) it was 0.40 μn moles/hr/mg protein; in [3] (cells grown on methane) it was 3.0 μmoles/hr/mg protein; in experiment [3] (cells grown on methanol) it was 3.5 μn moles/hr/mg protein. The “Conversion Rates, sec-alcohol” value was found to be 1.1 μmoles/hr/mg protein in experiment [4] (cells grown on methane); 1.0 μn moles/hr/mg protein in experiment [4] (cells grown on methanol); 3.5 μmoles/hr/mg protein in experiment [5] (cells grown on methane); 3.0 μn moles/hr/mg protein in experiment [5] (cells grown on methanol); 0.60 μmoles/hr/mg protein in experiment [6] (cells grown on methane); 0.70 μn moles/hr/mg protein in experiment [6] (cells grown on methanol). Also, the “Conversion Rates, sec-alcohol” value in experiment [8] stood at 4.7 μmoles/hr/mg protein; in experiment [9], 3.5 μmoles/hr/mg protein. Further, the “Conversion Rate, sec-alcohol to methyl ketone” value (shortened to “Conversion Rate, sec-alcohol”) in experiment [7] came to 4.92 μmoles/hr/mg Protein; in experiment [10], 6.2 μmoles/hr/mg Protein.

For the compound `CCCCC(C)O` (centres unmarked) [2-Hexanol, 2-hexanol], the “Conversion Rates, sec-alcohol” value in experiment [1] (cells grown on methane) amounted to 0.1 μmoles/hr/mg protein; in [1] (cells grown on methanol) it was 0.12 μn moles/hr/mg protein; in experiment [2] (cells grown on methane), 0.01 μmoles/hr/mg protein; in [2] (cells grown on methanol), 0.04 μn moles/hr/mg protein; in experiment [4] (cells grown on methane), 0.065 μmoles/hr/mg protein; in [4] (cells grown on methanol), 0.05 μn moles/hr/mg protein. Also, the “Conversion Rates, sec-alcohol” value in experiment [6] (cells grown on methane) is reported as 1.0 μmoles/hr/mg protein; in experiment [6] (cells grown on methanol), 1.3 μn moles/hr/mg protein; in experiment [8] it was 0.03 μmoles/hr/mg protein; in experiment [9] it was 0.80 μmoles/hr/mg protein. The “Conversion Rate, sec-alcohol” value in experiment [7] was 0.45 μmoles/hr/mg Protein; in experiment [10], 0.60 μmoles/hr/mg Protein.

Take `CCCC(C)O` (centres unmarked) [2-Pentanol, 2-pentanol]: the “Conversion Rates, sec-alcohol” value amounted to 0.5 μmoles/hr/mg protein in experiment [1] (cells grown on methane); 0.60 μn moles/hr/mg protein in experiment [1] (cells grown on methanol); 0.25 μmoles/hr/mg protein in experiment [2] (cells grown on methane); 0.45 μn moles/hr/mg protein in experiment [2] (cells grown on methanol); 0.80 μmoles/hr/mg protein in [4] (cells grown on methane); 0.82 μn moles/hr/mg protein in [4] (cells grown on methanol). Moreover, the “Conversion Rates, sec-alcohol” value in experiment [6] (cells grown on methane) was found to be 2.5 μmoles/hr/mg protein; in experiment [6] (cells grown on methanol), 3.5 μn moles/hr/mg protein; in experiment [8], 0.05 μmoles/hr/mg protein; in experiment [9] it was 2.1 μmoles/hr/mg protein. In addition, the “Conversion Rate, sec-alcohol” value turned out to be 0.82 μmoles/hr/mg Protein in [7] and 1.2 μmoles/hr/mg Protein in [10].

`CC(C)O` [2-Propanol, 2-propanol]: the “Conversion Rates, sec-alcohol” value in experiment [1] (cells grown on methane) came out at 0.15 μmoles/hr/mg protein; in [1] (cells grown on methanol), 0.52 μn moles/hr/mg protein; in experiment [2] (cells grown on methane), 0.40 μmoles/hr/mg protein; in [2] (cells grown on methanol) it was 0.35 μn moles/hr/mg protein; in experiment [3] (cells grown on methane), 0.30 μmoles/hr/mg protein; in experiment [3] (cells grown on methanol) it was 0.45 μn moles/hr/mg protein. In addition, the “Conversion Rates, sec-alcohol” value in experiment [4] (cells grown on methane) is on record as 0.32 μmoles/hr/mg protein; in experiment [4] (cells grown on methanol), 0.25 μn moles/hr/mg protein; in experiment [5] (cells grown on methane) it was 1.3 μmoles/hr/mg protein; in experiment [5] (cells grown on methanol) it was 1.5 μn moles/hr/mg protein; in experiment [6] (cells grown on methane), 0.80 μmoles/hr/mg protein; in experiment [6] (cells grown on methanol), 0.75 μn moles/hr/mg protein. Also, the figures for the “Conversion Rates, sec-alcohol” value in experiment [8] and in experiment [9] were 7.4 μmoles/hr/mg protein and 0.80 μmoles/hr/mg protein, respectively. The “Conversion Rate, sec-alcohol” value in [7] amounted to 4.5 μmoles/hr/mg Protein; in [10] it was 5.5 μmoles/hr/mg Protein.
